Assay results from US10022442B2, “Pyrazolopyrimidine compounds” (GlaxoSmithKline LLC, priority 2012, dated 2018).
Where a name gives a salt, the structure may show the parent alone.

How the values were obtained:
Interferon-α = test: Induction of Interferon-α using fresh human whole blood (WB); format: cell-based; details: three donors, overnight incubation, cytokine released as % of 2 μM resiquimod control, read-out: mean pEC50 for IFNα (converted)
Procedure: (§1) Assay for the Induction of Interferon-α and TNF-α using Fresh Human Whole Blood (WB)
(§2) Compounds were prepared at 100× required concentration in DMSO in flat-bottom microtitre plates at a volume of 1.5 μL. Columns 1-10 contained a 1 in 4 serial dilution of the test compound. Included on each plate was a serial dilution of the TLR7/8 agonist resiquimod as a standard and Column 11 contained 1.5 μl of 200 μM resiquimod (giving a 2 μM final concentration, used to define the approximate maximal response to resiquimod). Each compound was assayed in duplicate for each donor.
(§3) Incubation and Assays for Interferon-α and TNF-α
(§4) Blood samples from three human donors were collected into sodium heparin (10 U/ml). 150 μl of whole Blood was dispensed into Col 1 to 11 of assay plates containing 1.5 μl of test compound or standard in DMSO. Plates were placed in an incubator overnight (37° C., 95% air, 5% CO2). Following the overnight incubation, plates were removed from the incubator & mixed on an orbital shaker for approximately 1 minute. 100 μl of 0.9% saline was added to each well and the plates mixed again on an orbital shaker. Plates were then centrifuged (2500 rpm, 10 mins), after which a sample of plasma was removed using a Biomek FX and assayed for both IFN-α and TNF-α using the MSD (Mesoscale Discovery) electrochemiluminescence assay platform. The IFN-α assay was carried out similarly to that described above. The TNF-α assay was carried out as per kit instructions (Cat No K111BHB).
(§5) Cytokine released was expressed as a percentage of the 2 μM resiquimod control (column 11). This percentage was plotted against compound concentration and the pEC50 for the response determined by non-linear least squares curve fitting. For the IFN-α responses, generally a 4 parameter logistic model was selected. For the TNF responses where a clear maximum response was obtained (i.e. a well defined plateau in the response was observed) then a 4 parameter model was generally used. If the upper asymptote of the curve wasn't well defined then the curve fitting was generally constrained to a maximal response of 100% (i.e. to the response to 2 μM resiquimod) or to the response of the highest concentration tested if this was greater than the resiquimod response. Some curves were bell shaped for one or both cytokines and the cytokine data on the down slope of the bell shaped response (i.e. concentrations above those giving the maximal response) were generally excluded from the fit, usually with the exception of the concentration immediately above the peak response. Curve fitting thus concentrated on the up slope of the dose response curve.

TNF-α = test: Induction of TNF-α using fresh human whole blood (WB); format: cell-based; details: three donors, overnight incubation, cytokine released as % of 2 μM resiquimod control, read-out: mean pEC50 for TNF-α (converted)
Procedure: as §1, §2, §3, §4, §5

| EC50 (Interferon-α) | EC50 (TNF-α) | SMILES |
| --- | --- | --- |
| ≤ 1260 nM | ≥ 3980 nM | COCCc1nc(N)c2[nH]nc(CCCCCCN3CCCCC3)c2n1 [Example 2, 5-(2-Methoxyethyl)-3-(6-(piperidin-1-yl)hexyl)-1H-pyrazolo[4,3-d]pyrimidin-7-amine] |
| ≤ 1260 nM | ≥ 3980 nM | CCCCc1nc(N)c2[nH]nc(CCCCCCN3CCCCC3)c2n1 [Example 1, 5-Butyl-3-(6-(piperidin-1-yl)hexyl)-1H-pyrazolo[4,3-d]pyrimidin-7-amine formate] |
| ≤ 1260 nM | ≥ 3980 nM | CCCCc1nc(N)c2[nH]nc(CCCCCCN3CCC(O)CC3)c2n1 [Example 15, 1-(6-(7-Amino-5-butyl-1H-pyrazolo[4,3-d]pyrimidin-3-yl)hexyl)piperidin-4-01] |
| ≤ 1260 nM | ≥ 3980 nM | CCCCc1nc(N)c2[nH]nc(CCCCCCCN3CCCC3)c2n1 [Example 8, 5-Butyl-3-(7-(pyrrolidin-1-yl)heptyl)-1H-pyrazolo[4,3-d]pyrimidin-7-amine] |
| ≤ 1260 nM | ≥ 3980 nM | CCCCc1nc(N)c2[nH]nc(CCCCCN3CC[C@H](F)C3)c2n1 [Example 12, (S)-5-Butyl-3-(5-(3-fluoropyrrolidin-1-yl)pentyl)-1H-pyrazolo[4,3-d]pyrimidin-7-amine] |
| ≤ 1260 nM | ≥ 3980 nM | CCCCc1nc(N)c2[nH]nc(CCCCCN3CC[C@@H](F)C3)c2n1 [Example 14, (R)-5-Butyl-3-(5-(3-fluoropyrrolidin-1-yl)pentyl)-1H-pyrazolo[4,3-d]pyrimidin-7-amine] |
| ≤ 1260 nM | ≥ 3980 nM | CCCCc1nc(N)c2[nH]nc(CCCCCN3CCC(O)CC3)c2n1 [Example 16, 1-(5-(7-Amino-5-butyl-1H-pyrazolo[4,3-d]pyrimidin-3-yl)pentyl)piperidin-4-01] |
| ≤ 1260 nM | ≥ 3980 nM | CCCCc1nc(N)c2[nH]nc(CCCCCCN3CC[C@@H](F)C3)c2n1 [Example 13, (R)-5-Butyl-3-(6-(3-fluoropyrrolidin-1-yl)hexyl)-1H-pyrazolo[4,3-d]pyrimidin-7-amine formate] |
| ≤ 1260 nM | ≥ 3980 nM | CCCCc1nc(N)c2[nH]nc(CCCCCN3CCCCC3)c2n1 [Example 5, 5-Butyl-3-(5-(piperidin-1-yl)pentyl)-1H-pyrazolo[4,3-d]pyrimidin-7-amine] |
| ≤ 1260 nM | ≥ 3980 nM | CCCCc1nc(N)c2[nH]nc(CCCCCCN3CC[C@H](F)C3)c2n1 [Example 11, (S)-5-Butyl-3-(6-(3-fluoropyrrolidin-1-yl)hexyl)-1H-pyrazolo[4,3-d]pyrimidin-7-amine] |

The next lines start with the molecule.

| SMILES | EC50 (Interferon-α) | EC50 (TNF-α) |
| --- | --- | --- |
| CCCCc1nc(N)c2[nH]nc(CCCCCCN3CCCCCC3)c2n1 [Example 9, 3-(6-(Azepan-1-yl)hexyl)-5-butyl-1H-pyrazolo[4,3-d]pyrimidin-7-amine] | ≤ 1260 nM | ≥ 3980 nM |
| CCCCc1nc(N)c2[nH]nc(CCCCCN3CCC(F)CC3)c2n1 [Example 18, 5-Butyl-3-(5-(4-fluoropiperidin-1-yl)pentyl)-1H-pyrazolo[4,3-d]pyrimidin-7-amine] | ≤ 1260 nM | ≥ 3980 nM |
| CCCCc1nc(N)c2[nH]nc(CCCCCCN3CCC(F)CC3)c2n1 [Example 17, 5-Butyl-3-(6-(4-fluoropiperidin-1-yl)hexyl)-1H-pyrazolo[4,3-d]pyrimidin-7-amine formate] | ≤ 1260 nM | ≥ 3980 nM |
| CCCCc1nc(N)c2[nH]nc(CCCCCN3CCCC3)c2n1 [Example 6, 5-Butyl-3-(5-(pyrrolidin-1-yl)pentyl)-1H-pyrazolo[4,3-d]pyrimidin-7-amine] | ≤ 1260 nM | ≥ 3980 nM |
| CCCCc1nc(N)c2[nH]nc(CCCCCCCN3CCCCC3)c2n1 [Example 7, 5-Butyl-3-(7-(piperidin-1-yl)heptyl)-1H-pyrazolo[4,3-d]pyrimidin-7-amine] | ≤ 1260 nM | ≥ 3980 nM |
| CCCCc1nc(N)c2[nH]nc(CCCCCN3CCCCCC3)c2n1 [Example 10, 3-(5-(Azepan-1-yl)pentyl)-5-butyl-1H-pyrazolo[4,3-d]pyrimidin-7-amine] | ≤ 1260 nM | ≥ 3980 nM |
| COCCc1nc(N)c2[nH]nc(CCCCCCN3CCCC3)c2n1 [Example 4, 5-(2-Methoxyethyl)-3-(6-(pyrrolidin-1-yl)hexyl)-1H-pyrazolo[4,3-d]pyrimidin-7-amine] | ≤ 1260 nM | ≥ 3980 nM |
